Results from article PMC12514245, “Impaired migration and lung invasion of human melanoma by a novel small molecule targeting the transmembrane domain of death receptor p75^NTR” (EMBO Molecular Medicine, 2025).
Values joined by “and” are separate entries in the source; they are usually repeats but may differ in a detail not shown here. Identical values can stand only once.

Columns and labels:
[1] = assay type: in vivo; conditions: oral 200 mg/kg/day
[2] = system: A875-NT melanoma xenograft; test: Melanoma lung invasion assay, A875-NT, treatment from one day before cell injection; assay type: in vivo, SCID mice; conditions: for Photons/second/ mouse/week, Average: group average; for Photons/second/ mouse/week: single mouse
Description: Next, to assess the potential inhibitory effects of Np75-4A22 on melanoma cell migration and tissue invasion in vivo, we utilized the highly metastatic human A875 xenograft model. […] Initially, to mimic metastatic dissemination from the primary tumor site, A875-NT or A875-shp75 cells expressing GFP-Luc (for live-monitoring of tumor growth) were injected intravenously in female SCID mice 24 h following a single oral administration of Np75-A422 (200 mg/kg) or drug vehicle alone. Mice received 3 cycles of Np75-A422 (200 mg/kg/day) following a 5 day on and 2 days off drug schedule for a total of 3 weeks (Fig. 8A). Metastatic spread to the lungs was monitored weekly by luciferase activity using the Xenogen IVIS-200 Optical in vivo luciferase imaging system and mice were sacrificed after the third week. […] In addition, assessment of the metastatic spread was also quantified by histological assessment of non-consecutive lung sections stained for human nucleolin to detect the tumor cells. […] In addition, and as expected, high expression of p75^NTR was detected in lung tumors established by A875-NT cells but was negligible in tumors derived from A875-shp75 cells (Fig. EV10).
Eight-week-old female SCID mice (Charles River Laboratories, Shrewsbury, MA, USA) were housed in groups of three to five and maintained on a 12-h light/dark schedule with a temperature of 22 °C ± 1 °C and a relative humidity of 50% ± 5%. Food and water were available ad libitum. This research study was reviewed and approved by the University of Calgary Animal Care Committee (AC22-0054) and McGill University (AUP-JGH-8269) and adheres to established ethical principles and guidelines. A875-GFPLuc (A875-NT) or A875-GFPLuc shp75 (A875-shp75) cells harvested using Puck’s EDTA were resuspended in PBS and injected intravenously into SCID mice (5 × 10^5 cells/200 μl per mouse). Np75-4A22 was dissolved in 0.5% sodium carboxymethyl cellulose (NaCMC) in reverse osmosis H2O and administered by oral gavage at 200 mg/kg/day starting one day prior to intravenous (tail vein) injection of tumor cells and continued for 3 1-week cycles (cycle: 5 days on drug, 2 days off drug). Tumor spread to the lung was monitored weekly by luciferase activity using the Xenogen IVIS-200 Optical in vivo luciferase imaging system as described previously (Lun et al, [2016]) and by immunohistochemistry (IHC) at designated time points. IHC was performed after formalin fixation, paraffin embedding and sectioning of the lungs, using a human-specific mouse polyclonal nucleolin antibody (1:500 dilution) and detected using Dako liquid DAB+ Substrate Chromogen System (Dako: k3468, California, USA) followed by a hematoxylin counterstain (Sigma, Oakville, ON, Canada). Sections were mounted and imaged on an Olympus phase contrast microscope (Olympus Life Science, Tokyo, Japan). For immunofluorescence, sections were stained with anti-human nucleolin and anti-human p75NTR antibodies (1:1000 dilution), subsequently detected with 1:200 dilutions of Alexa Fluor™ 488 Goat anti-Mouse IgG (H + L) Highly Cross-Adsorbed Secondary Antibody and Alexa Fluor™ 568 Goat anti-Rabbit IgG (H + L) Cross-Adsorbed Secondary Antibody. Sections were further stained with DAPI to detect all nuclei. Between each treatment, TBS Automation Wash Buffer (Biocare Medical TWB945M) was employed. Images were taken with LSM800 confocal microscope and ZEN system.

p75^NTR TMD = p75^NTR TMD (Homo sapiens, UniProt P08138); test: 2D NMR (1H-15N TROSY-HSQC) chemical shift perturbation, p75NTR TMD in bicelles; conditions: 4 molar excess compound
Chain of p75^NTR TMD (P08138 240-274 limits assumed): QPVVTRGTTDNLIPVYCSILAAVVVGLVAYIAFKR

Cc1cccc(-c2cncc(Nc3ccc(Br)c(Cl)c3Cl)n2)c1C [Np75-4A22]
mortality, repeated dose ([1]; 21 consecutive days, females and males): No mortality | treatment-related effects, repeated dose, females ([1]; 21 days, females): mild decrease in lymphocyte cellularity and increase granulopoiesis | treatment-related effects, repeated dose, males ([1]; 21 days, males): no treatment-related effects | Photons/second/ mouse/week, Average ([2]; A875-NT, 1wk): 9.39E+04 Photons/second | Photons/second/ mouse/week ([2]; A875-NT, 1wk): 8.62E+04 Photons/second and 1.03E+05 Photons/second and 1.11E+05 Photons/second and 1.02E+05 Photons/second and 1.26E+05 Photons/second and 1.23E+05 Photons/second and 7.03E+04 Photons/second and 6.52E+04 Photons/second and 7.29E+04 Photons/second and 7.98E+04 Photons/second | Photons/second/ mouse/week, Average ([2]; A875-NT, 2wks): 1.01E+05 Photons/second | Photons/second/ mouse/week ([2]; A875-NT, 2wks): 9.63E+04 Photons/second and 1.02E+05 Photons/second and 1.27E+05 Photons/second and 8.86E+04 Photons/second and 1.04E+05 Photons/second and 1.23E+05 Photons/second and 9.01E+04 Photons/second and 9.59E+04 Photons/second and 8.45E+04 Photons/second and 9.64E+04 Photons/second | Photons/second/ mouse/week ([2]; A875-NT, 3wks): 1.77E+05 Photons/second and 1.53E+05 Photons/second and 2.03E+05 Photons/second and 2.34E+05 Photons/second and 2.96E+05 Photons/second and 2.73E+05 Photons/second and 1.26E+05 Photons/second and 2.18E+05 Photons/second and 2.30E+05 Photons/second and 1.32E+05 Photons/second | Metastatic Nodules/Lung Section, Average ([2]; A875-NT, average of 5 non-consecutive slides per individual mouse): 0.6 and 0.2 and 0.4 and 1 and 0 | Cancer Cells/Lung Section, Average per mouse ([2]; A875-NT, average of 5 slides of one mouse): 5.4 and 2 and 18.4 and 8 and 21.4 and 2.2 and 0 | Cancer Cells/Lung Section, group Average ([2]; A875-NT, average of all mice): 6.16 | Metastatic Nodules/Lung Section, group Average ([2]; A875-NT, average over all mice of the group): 0.36 | Metastatic Nodules/Lung Section, Slide 1 ([2]; A875-NT, individual mouse, slide 1 of 5 non-consecutive slides/mouse): 0 and 1 | Metastatic Nodules/Lung Section, Slide 2 ([2]; A875-NT, individual mouse, slide 2 of 5 non-consecutive slides/mouse): 1 and 0 | Metastatic Nodules/Lung Section, Slide 3 ([2]; A875-NT, individual mouse, slide 3 of 5 non-consecutive slides/mouse): 0 and 1 | Metastatic Nodules/Lung Section, Slide 4 ([2]; A875-NT, individual mouse, slide 4 of 5 non-consecutive slides/mouse): 0 and 1 and 2 | Metastatic Nodules/Lung Section, Slide 5 ([2]; A875-NT, individual mouse, slide 5 of 5 non-consecutive slides/mouse): 2 and 1 and 0 | lung tumors (luciferase imaging) ([2]; oral 200 mg/kg/day, 3 cycles 5 days on/2 days off): dramatic reduction of lung tumors | lung tumors by histology (human nucleolin; cancer cells and lesions) ([2]; oral 200 mg/kg/day, 3 weeks): marked reduction | chemical shift perturbations, p75NTR TMD (p75^NTR TMD): Significant chemical shifts
